Like-named read-outs stand apart in the source and are kept apart here.
Assays:
[1] = logP determination (neutral / HCOOH); settings: for chromatographic logP: HCOOH (formic acid)
[2] = tested on: green peach aphid (Myzus persicae); assay: Myzus test (spray treatment); format: in vivo; settings: foliar, 144 h, read-out: activity (effect in %, aphids killed)
Procedure: Solvents: 78 parts by weight of acetone
• 1.5 parts by weight of dimethylformamide Emulsifier 0.5 part by weight of alkylaryl polyglycol ether
To produce a suitable preparation of active compound, 1 part by weight of active compound is mixed with the stated amounts of solvents and emulsifier, and the concentrate is diluted with emulsifier-containing water to the desired concentration. Discs of leaves of Chinese cabbage (Brassica pekinensis) which are infested by all stages of the green peach aphid (Myzus persicae) are sprayed with an active compound preparation of the desired concentration.
After 6 days, the effect in % is determined. 100% means that all aphids have been killed; 0% means that none of the aphids has been killed.

[3] = application rate 500 g/ha, after 6 days, Chinese cabbage leaf discs

Row | SMILES | chromatographic logP ([1]; logP (HCOOH), HCOOH) | pest or weed control at 500 g/ha [2, 3] [%] | further results
1 | COCC(=O)c1cccc(Br)n1 [1-(6-Bromopyridin-2-yl)-2-methoxyethanone] | – | – | logP ([1]; logP (neutral), neutral): 1.73
2 | CC(=O)c1cnn(-c2cccnc2)c1 [1-[1-(Pyridin-3-yl)-1H-pyrazol-4-yl]ethanone] | 0.76 | – | –
3 | CC(=O)c1cccc(-c2cnn(-c3cccnc3)c2)n1 [1-[6-(1-Pyridin-3-yl-1H-pyrazol-4-yl)pyridin-2-yl]ethanone] | – | – | logP ([1]; logP (neutral), neutral): 1.94
4 | c1cnc(-c2cc[nH]n2)nc1 [2-(1H-Pyrazol-3-yl)pyrimidine] | 0.1 | – | –
5 | Brc1cccc(-c2ncccn2)n1 [2-(6-Bromopyridin-2-yl)pyrimidine] | 1.3 | – | –
6 | NC(=S)c1cccc(-c2cnn(-c3cccnc3)c2)n1 [6-(1-Pyridin-3-yl-1H-pyrazol-4-yl)pyridine-2-carbothioamide] | – | – | logP ([1]; logP (neutral), neutral): 1.77
7 | N=C(N)c1cccc(-c2cnn(-c3cccnc3)c2)n1 [6-(1-Pyridin-3-yl-1H-pyrazol-4-yl)pyridine-2-carboxamidine] | – | – | logP ([1]; logP (neutral), neutral): 1.99
8 | CN(C)/C=C/C(=O)c1cnn(-c2cccnc2)c1 [(2E)-3-(Dimethylamino)-1-[1-(pyridin-3-yl)-1H-pyrazol-4-yl]prop-2-en-1-one] | – | – | logP ([1]; HCOOH, logP (HCOOH)): 0.93
9 | c1cnc(-c2ccn(-c3cnn(-c4cccnc4)c3)n2)nc1 [Example 2, 1′-(Pyridin-3-yl)-3-(pyrimidin-2-yl)-1′H-1,4′-bipyrazole] | – | 100 | logP ([1]; HCOOH, logP (HCOOH)): 1.18
10 | FC(F)(F)c1ccn(-c2cnn(-c3cccnc3)c2)n1 [Example 3, 1′-Pyridin-3-yl-3-trifluoromethyl-1′H-[1,4′]bipyrazolyl] | 2.27 | 100 | –
11 | FC(F)(F)c1cccc(-c2cnn(-c3cccnc3)c2)n1 [Example 4, 2-[1-(Pyridin-3-yl)-1H-pyrazol-4-yl]-6-(trifluoromethyl)pyridine] | 2.51 | 100 | –
12 | Cn1cnc(-c2cccc(-c3cnn(-c4cccnc4)c3)n2)n1 [Example 6, 2-(1-Methyl-1H-[1,2,4]triazol-3-yl)-6-(1-pyridin-3-yl-1H-pyrazol-4-yl)pyridine] | – | 100 | logP ([1]; logP (neutral), neutral): 1.29
13 | FC(F)(F)c1ccnc(-n2ccc(-c3cnn(-c4cccnc4)c3)n2)n1 [Example 8, 1′-(Pyridin-3-yl)-1-[4-(trifluoromethyl)pyrimidin-2-yl]-1H,1′H-3,4′-bipyrazole] | 2.15 | 90 | –
14 | FC(F)(F)C(F)(F)c1nccc(-c2cnn(-c3cccnc3)c2)n1 [Example 9, 2-(Pentafluoroethyl)-4-[1-(pyridin-3-yl)-1H-pyrazol-4-yl]pyrimidine] | – | 100 | logP ([1]; HCOOH, logP (HCOOH)): 2.7
15 | CC1(c2cccc(-c3cnn(-c4cccnc4)c3)n2)OCCO1 [Example 10, 2-(2-Methyl-1,3-dioxolan-2-yl)-6-(1-pyridin-3-yl-1H-pyrazol-4-yl)pyridine] | – | – | logP ([1]; logP (neutral), neutral): 1.89; pest or weed control at 500 g/ha ([2]; in Brassica rapa): 100%
16 | COCC(F)(F)c1cccc(-c2cnn(-c3cccnc3)c2)n1 [Example 11, 2-(1,1-Difluoro-2-methoxyethyl)-6-(1-pyridin-3-yl-1H-pyrazol-4-yl)pyridine] | – | 100 | logP ([1]; logP (neutral), neutral): 2.3
17 | c1ccc(-c2cnn(-c3cccnc3)c2)nc1 [Example 12] | 0.81 | 100 | –
18 | c1cncc(-n2cc(-c3cccc(C4OCCCO4)n3)cn2)c1 [Example 13] | 1.59 | 90 | –
19 | Fc1cncc(-n2cc(-c3cccc(-c4ncccn4)n3)cn2)c1 [Example 14] | 1.81 | 90 | –
20 | FC(F)(F)c1nccc(-c2cnn(-c3cccnc3)c2)n1 [Example 15] | 2.13 | 100 | –
21 | CN(C)C(=O)c1cccc(-c2cnn(-c3cccnc3)c2)n1 [Example 17] | 1.24 | 100 | –
22 | O=C(c1cccc(-c2cnn(-c3cccnc3)c2)n1)N1CCOCC1 [Example 18] | 1.23 | 100 | –
23 | c1cncc(-n2cc(-c3cccc(-n4cccn4)n3)cn2)c1 [Example 19] | 2.21 | 100 | –
24 | Clc1cccc(-c2cnn(-c3cccnc3)c2)n1 [Example 20] | 2.05 | – | –
25 | Cc1cc(C)n(-c2cccc(-c3cnn(-c4cccnc4)c3)n2)n1 [Example 21] | 2.64 | 100 | –
26 | c1ccc(-c2ccn(-c3cnn(-c4cccnc4)c3)n2)nc1 [Example 23] | 1.19 | 100 | –
27 | Brc1cccc(-c2cnn(-c3cccnc3)c2)n1 [Example 24] | 2.18 | 100 | –

Row | SMILES | chromatographic logP ([1]; logP (HCOOH), HCOOH) | pest or weed control at 500 g/ha [2, 3] [%] | further results
28 | FC(F)(F)COc1cccc(-c2cnn(-c3cccnc3)c2)n1 [Example 25] | 2.96 | – | pest or weed control at 100 g/ha ([2]; application rate 100 g/ha, after 6 days, Chinese cabbage leaf discs): 80%
29 | Cc1nn(-c2cccnc2)cc1-n1ccc(C(F)(F)F)n1 [Example 26] | 2.51 | 100 | –
30 | CC(C)(C)OC(=O)Nc1cccc(-c2cnn(-c3cccnc3)c2)n1 [Example 27] | 2.87 | 100 | –
31 | COc1ccnc(-n2ccc(-c3cnn(-c4cccnc4)c3)n2)n1 [Example 28] | 1.71 | 100 | –
32 | CC(F)(F)c1cccc(-c2cnn(-c3cccnc3)c2)n1 [Example 29] | 2.46 | 90 | –
33 | N#Cc1cccc(-c2cnn(-c3cccnc3)c2)n1 [Example 30, 6-(1-Pyridin-3-yl-1H-pyrazol-4-yl)pyridine-2-carbonitrile] | – | – | logP ([1]; logP (neutral), neutral): 1.79; logP (neutral) ([1]; neutral): 1.73; pest or weed control at 500 g/ha ([2]; in Brassica rapa): 100%
34 | Fc1cnc(-n2ccc(-c3cnn(-c4cccnc4)c3)n2)nc1 [Example 31] | 1.52 | 100 | –
35 | c1cnc(-n2ccc(-c3cnn(-c4cccnc4)c3)n2)nc1 [Example 33] | 1.33 | 100 | –
36 | FC(F)(F)c1ccnc(-c2cnn(-c3cccnc3)c2)n1 [Example 35] | 2.23 | 80 | –
37 | c1cncc(-n2cc(-c3cccc(C4OCCO4)n3)cn2)c1 [Example 36] | 1.5 | 100 | –
38 | Ic1cncc(-n2cc(-c3cccc(-c4ncccn4)n3)cn2)c1 [Example 37] | 2.37 | 100 | –
39 | COc1cccc(-c2cnn(-c3cccnc3)c2)n1 [Example 38] | 2.12 | 100 | –
40 | c1cncc(-c2cnn(-c3cccnc3)c2)c1 [Example 39] | 0.39 | 100 | –
41 | FC(F)(F)c1cccc(-n2ccc(-c3cnn(-c4cccnc4)c3)n2)n1 [Example 41] | 3.18 | – | –
42 | FC(F)(F)c1cccc(-c2cnn(-c3cccnc3)c2)c1 [Example 52] | 2.99 | – | –
43 | COc1ccc(-c2cnn(-c3cccnc3)c2)cc1 [Example 53] | 2.12 | – | –
44 | O=C1CCCN1c1cccc(-c2cnn(-c3cccnc3)c2)n1 [Example 80] | 1.86 | – | –
45 | O=C1CCCCN1c1cccc(-c2cnn(-c3cccnc3)c2)n1 [Example 81] | 1.59 | – | –
46 | CC1(C)COC(c2cccc(-c3cnn(-c4cccnc4)c3)n2)OC1 [Example 104] | 2.44 | – | logP ([1]; logP (neutral), neutral): 2.55
47 | Brc1cncc(-n2cc(-c3cccc(-c4ncccn4)n3)cn2)c1 [Example 111] | 2.17 | – | –
48 | c1cncc(-n2cc(-c3ccncn3)cn2)c1 [Example 113] | 0.89 | – | –
49 | N=C(NO)c1cccc(-c2cnn(-c3cccnc3)c2)n1 [Example 114] | 0.86 | – | –
50 | N=C(NO)c1cccc(-c2cnn(-c3cccnc3)c2)n1 [N-Hydroxy-6-(1-pyridin-3-yl-1H-pyrazol-4-ylpyridine-2-carboxamidine] | – | – | logP ([1]; logP (neutral), neutral): 1.23
51 | CON(C)C(=O)c1cnn(-c2cccnc2)c1 [N-Methoxy-N-methyl-1-(pyridin-3-yl)-1H-pyrazole-4-carboxamide] | – | – | logP ([1]; HCOOH, logP (HCOOH)): 0.91
52 | CC1(C)OB(c2cnn(-c3cncc(F)c3)c2)OC1(C)C [VI-2] | 2.88 | – | –
53 | CC1(C)OB(c2cnn(-c3cncnc3)c2)OC1(C)C [VI-3] | 2.1 | – | –
